# ChEMBL document CHEMBL1201862, “PubChem BioAssay data set” (2004)
#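 48-hour exposure; five concentrations; linearly interpolated endpoints. The concentration for 50% growth inhibition is given as GI50.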 The source made the active and inactive calls. No stated cut-off is given here; in the data, active = GI50 up to about 1.1 µM and inactive = higher.
# Experiments:
# Assay in all cases: NCI anticancer screen, dose series, 48 h
# [1] = tested on: PC-3
# [2] = tested on: OVCAR-8
# [3] = tested on: HCT-116
# [4] = tested on: KM12
# [5] = tested on: A549
# [6] = tested on: OVCAR-4
# [7] = tested on: SF-295
# [8] = tested on: LOX IMVI
# [9] = tested on: HL-60
# [10] = tested on: EKVX
# [11] = tested on: ACHN
# [12] = tested on: CCRF-CEM
# [13] = tested on: SW-620
# [14] = tested on: RXF 393
# [15] = tested on: OVCAR-5
# [16] = tested on: UO-31
# [17] = tested on: 786-0
# [18] = tested on: HOP-92
# [19] = tested on: IGROV-1
# [20] = tested on: SNB-75
# [21] = tested on: MOLT-4
# [22] = tested on: NCI-H226
# [23] = tested on: HT-29
# [24] = tested on: SF-268
# [25] = tested on: Malme-3M
# [26] = tested on: SNB-19
# [27] = tested on: SF-539
# [28] = tested on: UACC-62
# [29] = tested on: NCI-H460
# [30] = tested on: SK-MEL-28
# [31] = tested on: COLO 205
# [32] = tested on: DU-145
# [33] = tested on: HCT-15
# [34] = tested on: CAKI-1
# [35] = tested on: MDA-MB-231
# [36] = tested on: SK-OV-3
# [37] = tested on: NCI-H23
# [38] = tested on: HCC 2998
# [39] = tested on: TK-10
# [40] = tested on: SN12C
# [41] = tested on: T47D
# [42] = tested on: HOP-62
# [43] = tested on: U-251
# [44] = tested on: NCI-H522
# [45] = tested on: K562
# [46] = tested on: SR
# [47] = tested on: A498
# [48] = tested on: RPMI-8226
# [49] = tested on: SK-MEL-2
# [50] = tested on: NCI/ADR-RES
# [51] = tested on: Hs-578T
# [52] = tested on: MDA-MB-435
# [53] = tested on: UACC-257
# [54] = tested on: SK-MEL-5
# [55] = tested on: MCF7
# [56] = tested on: M14
# [57] = tested on: OVCAR-3
# [58] = tested on: MDA-N
compound,measurement,setting,value
Cc1ccc(S(=O)(=O)N/N=c2/sc3ccccc3n2C)cc1,GI50,[1],> 100 µM (inactive)
same,GI50,[2],> 100 µM (inactive)
same,GI50,[3],> 100 µM (inactive)
same,GI50,[4],> 100 µM (inactive)
same,GI50,[5],> 100 µM (inactive)
same,GI50,[6],> 100 µM (inactive)
same,GI50,[7],> 100 µM (inactive)
same,GI50,[8],> 100 µM (inactive)
same,GI50,[9],> 100 µM (inactive)
same,GI50,[10],> 100 µM (inactive)
same,GI50,[11],> 100 µM (inactive)
same,GI50,[12],> 100 µM (inactive)
same,GI50,[13],> 100 µM (inactive)
same,GI50,[14],> 100 µM (inactive)
same,GI50,[15],> 100 µM (inactive)
same,GI50,[16],> 100 µM (inactive)
same,GI50,[17],> 100 µM (inactive)
same,GI50,[18],> 100 µM (inactive)
same,GI50,[19],> 100 µM (inactive)
same,GI50,[20],> 100 µM (inactive)
same,GI50,[21],> 100 µM (inactive)
same,GI50,[22],> 100 µM (inactive)
same,GI50,[23],> 100 µM (inactive)
same,GI50,[24],> 100 µM (inactive)
same,GI50,[25],> 100 µM (inactive)
same,GI50,[26],> 100 µM (inactive)
same,GI50,[27],> 100 µM (inactive)
same,GI50,[28],> 100 µM (inactive)
same,GI50,[29],> 100 µM (inactive)
same,GI50,[30],> 100 µM (inactive)
same,GI50,[31],> 100 µM (inactive)
same,GI50,[32],> 100 µM (inactive)
same,GI50,[33],> 100 µM
same,GI50,[34],> 100 µM (inactive)
same,GI50,[35],> 100 µM (inactive)
same,GI50,[36],> 100 µM (inactive)
same,GI50,[37],> 100 µM (inactive)
same,GI50,[38],> 100 µM (inactive)
same,GI50,[39],> 100 µM (inactive)
same,GI50,[40],> 100 µM (inactive)
same,GI50,[41],> 100 µM (inactive)
same,GI50,[42],> 100 µM (inactive)
same,GI50,[43],> 100 µM (inactive)
same,GI50,[44],33.7 µM (inactive)
same,GI50,[45],> 100 µM (inactive)
same,GI50,[46],> 100 µM (inactive)
same,GI50,[47],> 100 µM (inactive)
same,GI50,[48],> 100 µM (inactive)
same,GI50,[49],> 100 µM (inactive)
same,GI50,[50],> 100 µM (inactive)
same,GI50,[51],> 100 µM (inactive)
same,GI50,[52],> 100 µM (inactive)
same,GI50,[53],> 100 µM (inactive)
same,GI50,[54],> 100 µM (inactive)
Cc1cccc(C)c1NC(=S)N/C=C(\C#N)C(N)=O,GI50,[1],> 100 µM (inactive)
same,GI50,[2],> 100 µM (inactive)
same,GI50,[3],> 100 µM (inactive)
same,GI50,[4],> 100 µM (inactive)
same,GI50,[5],> 100 µM (inactive)
same,GI50,[6],> 100 µM (inactive)
same,GI50,[55],> 100 µM (inactive)
same,GI50,[7],> 100 µM (inactive)
same,GI50,[8],> 100 µM (inactive)
same,GI50,[10],> 100 µM (inactive)
same,GI50,[11],> 100 µM (inactive)
same,GI50,[12],> 100 µM (inactive)
same,GI50,[13],> 100 µM (inactive)
same,GI50,[14],> 100 µM (inactive)
same,GI50,[15],> 100 µM (inactive)
same,GI50,[16],> 100 µM (inactive)
same,GI50,[17],> 100 µM (inactive)
same,GI50,[18],> 100 µM (inactive)
same,GI50,[19],> 100 µM (inactive)
same,GI50,[21],> 100 µM (inactive)
same,GI50,[22],> 100 µM (inactive)
same,GI50,[23],> 100 µM (inactive)
same,GI50,[24],> 100 µM (inactive)
same,GI50,[25],> 100 µM (inactive)
same,GI50,[26],> 100 µM (inactive)
same,GI50,[27],> 100 µM (inactive)
same,GI50,[28],> 100 µM (inactive)
same,GI50,[29],> 100 µM (inactive)
same,GI50,[56],> 100 µM (inactive)
same,GI50,[30],> 100 µM (inactive)
same,GI50,[31],> 100 µM (inactive)
same,GI50,[32],> 100 µM (inactive)
same,GI50,[33],> 100 µM
same,GI50,[34],> 100 µM (inactive)
same,GI50,[35],> 100 µM (inactive)
same,GI50,[36],> 100 µM (inactive)
same,GI50,[37],> 100 µM (inactive)
same,GI50,[39],> 100 µM (inactive)
same,GI50,[40],> 100 µM (inactive)
same,GI50,[57],> 100 µM (inactive)
same,GI50,[58],> 100 µM (inactive)
same,GI50,[42],> 100 µM (inactive)
same,GI50,[43],> 100 µM (inactive)
same,GI50,[44],> 100 µM (inactive)
same,GI50,[45],> 100 µM (inactive)
same,GI50,[48],> 100 µM (inactive)
same,GI50,[49],> 100 µM (inactive)
same,GI50,[50],> 100 µM (inactive)
same,GI50,[51],> 100 µM (inactive)
same,GI50,[52],> 100 µM (inactive)
same,GI50,[53],> 100 µM (inactive)
same,GI50,[54],> 100 µM (inactive)
